Laboratory results published in US20240368150A1 (Hoffmann-La Roche Inc., priority 2021, published 2024).
Where two headings read alike, the source gives them in different places.

Columns and labels:
hDGKzeta(1-928)-N-His = hDGKzeta(1-928)-N-His (Homo sapiens (Human), UniProt Q13574); assay: DGKzeta ADP Glo assay (in vitro DGK inhibition); type: biochemical; details: DLG 125 uM, ATP 50 μM, DGK ζ 2 nM, 1 hour reaction
Method: (§1) DGK α and ζ kinase use ATP to phosphorylate the substrate 1,2-dilauroyl-sn-glycerol (DLG, incorporated in the liposomes). ATP is converted to ADP as a result of this enzymatic reaction. After the kinase reaction, an ATP-depletion reagent is added to terminate the kinase reaction and deplete any remaining ATP, leaving only ADP. Second, a detection reagent is added to simultaneously convert ADP to ATP and allow the newly synthesized ATP to be converted to light using a coupled luciferase/luciferin reaction.
(§2) Purification of both enzymes was performed as previously described by Takahashi et al., PeerJ, 2018 (Takahashi, D.; Sakane, F. Expression and purification of human diacylglycerol kinase alpha from baculovirus-infected insect cells for structural studies. PeerJ 2018, 6, No. e5449).
(§3) A concentrated liposome solution was prepared in assay buffer without DTT and BSA: 2 mM of DLG in 21 mM of total liposome (2 mM DLG/8 mM PS/11 mM PC). […] The reactions were started by addition of DGK α and ζ kinases at 4 nM and 2 nM final concentrations, respectively. After 1 hour reaction, the amount of ADP formed was detected with the ADP-Glo kinase assay (Promega) according to the manufacturer instructions. Compounds were added in 11-points dose response, starting at […], 1:3 dilutions, with a final DMSO concentration of 2%. The multidrop combi was used as a liquid handler and luminescence was read with 0.5 s by the envision reader (PE).

primary human T-cells [1] = assay: Proliferation assay after 5 days (CellTiter-Glo, CD3 stimulation; PBS counter screen); type: cell-based; details: CD3 stimulation; for Emax: read-out: Emax proliferation (% activation); for EC50: primary human T-cells, CellTiter-Glo after 5 days, EC50 of fitted sigmoidal curve, read-out: Tcell Proliferation CD3 EC50
How it was run: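 Luminescent ATP detection (CellTiter-Glo 2.0) quantified cell number 5 days after compounds went onto medium-only plates. Wells showing visible toxicity or precipitate were noted beforehand, and compounds that stimulated unstimulated cells or lowered viability were flagged.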

hDGKalpha(1-735)-N-His = hDGKalpha(1-735)-N-His (Homo sapiens (Human), UniProt P23743); assay: DGKalpha ADP Glo assay (in vitro DGK inhibition); type: biochemical; details: DLG 125 uM, ATP 25 μM, DGK α 4 nM, 1 hour reaction
Method: as §1, §2, §3

primary human T-cells [2] = test system: primary human T-cells
MV-3 cells = assay: T-cell - TCB - MV3 killing assay (MCSP-TCB, RFP object count by Incucyte); type: cell-based, human; details: 5 d; for Emax: normalized: MCSP-TCB only = neutral control, 20 μM reference compound A1 = 100%, read-out: MSCP TCB killing MV-3 cells 5 d Emax; for EC50: primary human T-cells + MCSP-TCB, MV-3 RFP cells, read-out: MSCP TCB killing MV-3 cells 5 d EC50
[3] = Homo sapiens, T-cell, 120 h, 5 days, normalized to reference compound A1 as stimulator control = 100%, DMSO neutral control

Sequence of hDGKzeta(1-928)-N-His (Q13574 whole entry): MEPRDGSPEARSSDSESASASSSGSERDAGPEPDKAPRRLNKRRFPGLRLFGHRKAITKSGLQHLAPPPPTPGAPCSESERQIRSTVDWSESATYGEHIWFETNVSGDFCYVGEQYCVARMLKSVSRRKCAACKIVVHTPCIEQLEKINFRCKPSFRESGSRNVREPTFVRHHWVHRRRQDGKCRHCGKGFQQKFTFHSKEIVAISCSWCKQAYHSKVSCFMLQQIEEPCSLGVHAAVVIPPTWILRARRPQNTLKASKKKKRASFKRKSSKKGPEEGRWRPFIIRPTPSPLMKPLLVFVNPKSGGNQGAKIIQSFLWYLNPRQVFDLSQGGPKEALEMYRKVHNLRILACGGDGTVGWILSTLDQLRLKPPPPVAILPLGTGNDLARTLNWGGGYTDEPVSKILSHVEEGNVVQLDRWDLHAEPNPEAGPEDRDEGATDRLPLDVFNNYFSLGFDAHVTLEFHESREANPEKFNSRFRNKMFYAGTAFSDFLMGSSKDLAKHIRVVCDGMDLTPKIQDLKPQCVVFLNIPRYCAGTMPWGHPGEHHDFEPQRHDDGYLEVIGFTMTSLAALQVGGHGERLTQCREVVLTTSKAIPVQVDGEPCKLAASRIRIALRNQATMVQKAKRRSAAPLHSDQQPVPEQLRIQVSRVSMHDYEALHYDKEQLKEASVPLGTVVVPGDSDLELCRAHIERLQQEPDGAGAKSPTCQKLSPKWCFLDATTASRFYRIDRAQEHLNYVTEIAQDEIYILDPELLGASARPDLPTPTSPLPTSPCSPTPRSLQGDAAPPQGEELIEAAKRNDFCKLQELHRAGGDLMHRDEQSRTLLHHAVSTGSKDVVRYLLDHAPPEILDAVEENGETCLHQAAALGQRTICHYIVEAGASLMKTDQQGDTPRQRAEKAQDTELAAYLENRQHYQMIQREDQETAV
Sequence of hDGKalpha(1-735)-N-His (P23743 whole entry): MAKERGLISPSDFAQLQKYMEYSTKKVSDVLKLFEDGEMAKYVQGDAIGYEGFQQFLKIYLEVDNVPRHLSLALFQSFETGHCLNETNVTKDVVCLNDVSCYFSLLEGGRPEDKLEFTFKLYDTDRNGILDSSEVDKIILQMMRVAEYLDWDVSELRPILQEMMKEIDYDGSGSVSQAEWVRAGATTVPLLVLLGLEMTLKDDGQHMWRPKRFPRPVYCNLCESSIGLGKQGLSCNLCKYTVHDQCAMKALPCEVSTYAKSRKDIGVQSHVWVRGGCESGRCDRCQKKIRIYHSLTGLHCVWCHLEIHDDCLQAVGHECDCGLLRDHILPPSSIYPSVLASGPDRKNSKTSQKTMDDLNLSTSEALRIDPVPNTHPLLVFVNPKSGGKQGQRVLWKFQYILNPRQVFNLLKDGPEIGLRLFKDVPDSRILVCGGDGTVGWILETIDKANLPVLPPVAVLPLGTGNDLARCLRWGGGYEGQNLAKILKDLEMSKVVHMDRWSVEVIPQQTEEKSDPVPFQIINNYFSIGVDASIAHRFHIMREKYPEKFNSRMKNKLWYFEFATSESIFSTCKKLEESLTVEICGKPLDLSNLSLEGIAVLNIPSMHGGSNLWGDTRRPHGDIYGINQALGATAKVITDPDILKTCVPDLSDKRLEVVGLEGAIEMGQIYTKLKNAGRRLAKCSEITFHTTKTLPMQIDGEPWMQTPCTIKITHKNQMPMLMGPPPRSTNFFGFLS

IC50 (hDGKzeta(1-928)-N-His) [nM] | IC50 (hDGKalpha(1-735)-N-His) [nM] | EC50 (primary human T-cells [2]) [nM] | SMILES | Emax (primary human T-cells [1]; [3]) [%] | EC50 (primary human T-cells [1]; Homo sapiens, T-cell, 120 h) [nM] | Emax (MV-3 cells; Homo sapiens, MV-3, 120 h) [%] | EC50 (MV-3 cells) [nM] | EC50 (MV-3 cells; Homo sapiens, MV-3, 120 h) [nM] | Emax proliferation (% activation) (primary human T-cells [1]; 5 days, normalized to reference compound A1 as stimulator control = 100%, DMSO neutral control) | EC50 (primary human T-cells [1]) [nM]
207 | 343 | – | CC(C)Oc1ccc(CN2C(=O)[C@@H](N)CS(=O)(=O)c3cc(F)c(-c4noc(C5CN(C)CC(F)(F)C5)n4)cc32)cc1 (stereo partly drawn) [Example 345, (3R)-3-amino-7-[5-(5,5-difluoro-1-methyl-3-piperidyl)-1,2,4-oxadiazol-3-yl]-8-fluoro-5-[(4-isopropoxyphenyl)methyl]-1,1-dioxo-2,3-dihydro-1λ^6,5-benzothiazepin-4-one] | 152 | – | – | – | – | – | –
– | – | 649 | N[C@H]1CS(=O)(=O)c2ccc(-c3nnc(NC4CC(F)(F)C4)o3)cc2N(Cc2ccc(Cl)cc2)C1=O [Example 397, (3R)-3-amino-5-[(4-chlorophenyl)methyl]-7-[5-[(3,3-difluorocyclobutyl)amino]-1,3,4-oxadiazol-2-yl]-1,1-dioxo-2,3-dihydro-1λ^6,5-benzothiazepin-4-one] | 82 | 2190 | 92 | 1850 | – | – | –
– | – | 446 | N[C@H]1CS(=O)(=O)c2ccc(-c3nnc(NC4CCCC(F)(F)C4)o3)cc2N(Cc2ccc(Cl)cc2)C1=O (stereo partly drawn) [Example 401, (3R)-3-amino-5-[(4-chlorophenyl)methyl]-7-[5-[(3,3-difluorocyclohexyl)amino]-1,3,4-oxadiazol-2-yl]-1,1-dioxo-2,3-dihydro-1λ^6,5-benzothiazepin-4-one] | 69 | 1130 | 92 | 1540 | – | – | –
795 | 2870 | – | N[C@H]1CS(=O)(=O)c2ccc(-c3nnc(N4CCOC(C(F)F)C4)o3)cc2N(Cc2ccc(Cl)cc2)C1=O (stereo partly drawn) [Example 409, (3R)-3-amino-5-[(4-chlorophenyl)methyl]-7-[5-[2-(difluoromethyl)morpholin-4-yl]-1,3,4-oxadiazol-2-yl]-1,1-dioxo-2,3-dihydro-1λ^6,5-benzothiazepin-4-one] | 95 | 3880 | – | – | – | – | –
– | – | 1400 | CC(C)(C)c1nnc(-c2ccc3c(c2)N(Cc2ccc(C(C)(C)C#N)cc2)C(=O)[C@@H](N)CS3(=O)=O)o1 [Example 437, 2-[4-[[(3R)-3-amino-7-(5-tert-butyl-1,3,4-oxadiazol-2-yl)-1,1,4-trioxo-2,3-dihydro-1λ^6,5-benzothiazepin-5-yl]methyl]phenyl]-2-methyl-propanenitrile] | 112 | 698 | 88 | – | 340 | – | –
– | – | 153 | CN1CC(c2nnc(-c3cc4c(cc3F)S(=O)(=O)C[C@H](N)C(=O)N4Cc3ccc(Cl)cc3)o2)CC(F)(F)C1 (stereo partly drawn) [Example 451, (3R)-3-amino-5-[(4-chlorophenyl)methyl]-7-[5-(5,5-difluoro-1-methyl-3-piperidyl)-1,3,4-oxadiazol-2-yl]-8-fluoro-1,1-dioxo-2,3-dihydro-1λ^6,5-benzothiazepin-4-one] | – | – | 88 | 160 | – | 200 | 82.1
– | – | 97.7 | N[C@H]1CS(=O)(=O)c2cc(F)c(-c3nnc(N4CCOCC4)o3)cc2N(Cc2ccc(Cl)cc2)C1=O [Example 454, (3R)-3-amino-5-[(4-chlorophenyl)methyl]-8-fluoro-7-(5-morpholino-1,3,4-oxadiazol-2-yl)-1,1-dioxo-2,3-dihydro-1λ^6,5-benzothiazepin-4-one] | 129 | 309 | 100 | 70 | – | – | –
– | – | 225 | N[C@H]1CS(=O)(=O)c2cc(F)c(-c3nnc(NC4CCCC4)o3)cc2N(Cc2ccc(Cl)cc2)C1=O [Example 455, (3R)-3-amino-5-[(4-chlorophenyl)methyl]-7-[5-(cyclopentylamino)-1,3,4-oxadiazol-2-yl]-8-fluoro-1,1-dioxo-2,3-dihydro-1λ^6,5-benzothiazepin-4-one] | 115 | 339 | 91 | 370 | – | – | –
– | – | 607 | N[C@H]1CS(=O)(=O)c2cc(F)c(-c3nnc(NC4CCC(F)(F)C4)o3)cc2N(Cc2ccc(Cl)cc2)C1=O (stereo partly drawn) [Example 456, (3R)-3-amino-5-[(4-chlorophenyl)methyl]-7-[5-[(3,3-difluorocyclopentyl)amino]-1,3,4-oxadiazol-2-yl]-8-fluoro-1,1-dioxo-2,3-dihydro-1λ^6,5-benzothiazepin-4-one] | 99 | 1260 | 94 | 770 | – | – | –
– | – | 543 | N[C@H]1CS(=O)(=O)c2cc(F)c(-c3nnc(NC4CCC(F)(F)CC4)o3)cc2N(Cc2ccc(Cl)cc2)C1=O [Example 458, (3R)-3-amino-5-[(4-chlorophenyl)methyl]-7-[5-[(4,4-difluorocyclohexyl)amino]-1,3,4-oxadiazol-2-yl]-8-fluoro-1,1-dioxo-2,3-dihydro-1λ^6,5-benzothiazepin-4-one] | 116 | 491 | 95 | 590 | – | – | –
– | – | 455 | CC1(Nc2nnc(-c3cc4c(cc3F)S(=O)(=O)C[C@H](N)C(=O)N4Cc3ccc(Cl)cc3)o2)CC(F)(F)C1 [Example 461, (3R)-3-amino-5-[(4-chlorophenyl)methyl]-7-[5-[(3,3-difluoro-1-methyl-cyclobutyl)amino]-1,3,4-oxadiazol-2-yl]-8-fluoro-1,1-dioxo-2,3-dihydro-1λ^6,5-benzothiazepin-4-one] | 106 | 395 | 91 | 310 | – | – | –
– | – | 986 | N[C@H]1CS(=O)(=O)c2cc(F)c(-c3nnc(NC4CC(F)(F)C4)o3)cc2N(Cc2ccc(Cl)cc2)C1=O [Example 462, (3R)-3-amino-5-[(4-chlorophenyl)methyl]-7-[5-[(3,3-difluorocyclobutyl)amino]-1,3,4-oxadiazol-2-yl]-8-fluoro-1,1-dioxo-2,3-dihydro-1λ^6,5-benzothiazepin-4-one] | 121 | 562 | 100 | 350 | – | – | –
– | – | 577 | N[C@H]1CS(=O)(=O)c2cc(F)c(-c3nnc(NC4CCCC(F)(F)C4)o3)cc2N(Cc2ccc(Cl)cc2)C1=O (stereo partly drawn) [Example 463, (3R)-3-amino-5-[(4-chlorophenyl)methyl]-7-[5-[(3,3-difluorocyclohexyl)amino]-1,3,4-oxadiazol-2-yl]-8-fluoro-1,1-dioxo-2,3-dihydro-λ^6,5-benzothiazepin-4-one] | 104 | 519 | 91 | 540 | – | – | –
– | – | 1130 | CC(C)Nc1nnc(-c2cc3c(cc2F)S(=O)(=O)C[C@H](N)C(=O)N3Cc2ccc(Cl)cc2)o1 [Example 464, (3R)-3-amino-5-[(4-chlorophenyl)methyl]-8-fluoro-7-[5-(isopropylamino)-1,3,4-oxadiazol-2-yl]-1,1-dioxo-2,3-dihydro-1λ^6,5-benzothiazepin-4-one] | 111 | 1040 | 89 | 460 | – | – | –
– | – | 254 | CC(C)(C)Nc1nnc(-c2cc3c(cc2F)S(=O)(=O)C[C@H](N)C(=O)N3Cc2ccc(Cl)cc2)o1 [Example 488, (3R)-3-amino-7-[5-(tert-butylamino)-1,3,4-oxadiazol-2-yl]-5-[(4-chlorophenyl)methyl]-8-fluoro-1,1-dioxo-2,3-dihydro-1λ^6,5-benzothiazepin-4-one] | 105 | 351 | 93 | 300 | – | – | –
– | – | 290 | CCc1nnn(-c2cc3c(cc2F)S(=O)(=O)C[C@H](N)C(=O)N3Cc2ccc(Cl)cc2)n1 [Example 509, (3R)-3-amino-5-[(4-chlorophenyl)methyl]-7-(5-ethyltetrazol-2-yl)-8-fluoro-1,1-dioxo-2,3-dihydro-1λ^6,5-benzothiazepin-4-one] | 122 | 158 | 94 | 190 | – | – | –
